Assay results: PubChem BioAssay (NCI)
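Cultured in 96-well plates, cells were exposed to test compound for 48 hours across five concentrations. TGI: concentration producing complete growth inhibition.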

How the values were obtained:
Assay in all cases: NCI anticancer screen, dose series, 48 h
[1] = test system: DU-145 prostate
[2] = test system: HCC-2998 colon
[3] = test system: HCT-15 colon
[4] = test system: HOP-62 NSCLC
[5] = test system: HS 578T breast
[6] = test system: IGROV1 ovarian
[7] = test system: K-562 leukemia
[8] = test system: KM12 colon
[9] = test system: NCI/ADR-RES ovarian
[10] = test system: SN12C renal

SMILES	TGI [1]	TGI [2]	TGI [3]	TGI [4]	TGI [5]	TGI [6]	TGI [7]	TGI [8]	TGI [9]	TGI [10]
CN(C)c1ccc(C(=NN)c2ccc(N(C)C)cc2)cc1	> 35 µM	3.73 µM	> 40.9 µM	> 57.6 µM	> 100 µM	> 100 µM	> 56.9 µM	> 100 µM	0.672 µM	> 100 µM
Oc1ccc(-c2cn3cc(C(F)(F)F)ccc3n2)cc1	> 100 µM	42.3 µM	> 100 µM	> 100 µM	> 100 µM	> 100 µM	> 100 µM	> 100 µM	> 100 µM	> 100 µM
COC(=O)[C@@H]1Cc2cc(O)c(O)cc2C2(CCN(C)CC2)O1	> 10 µM	> 10 µM	> 10 µM	> 10 µM	> 10 µM	> 10 µM	–	> 10 µM	> 10 µM	> 10 µM
CC(C)CN(CC#N)CC(C)C	> 100 µM	> 100 µM	> 100 µM	> 100 µM	> 100 µM	> 100 µM	> 100 µM	> 100 µM	> 100 µM	> 100 µM
NC(N)=NC(N)=Nc1ccccc1 (tested in a mixture with another compound)	> 100 µM	> 100 µM	> 100 µM	> 100 µM	> 100 µM	> 100 µM	> 100 µM	> 100 µM	> 100 µM	> 100 µM
CC(=O)OCC(OC(C)=O)C(OC(C)=O)C(OC(C)=O)C(/C=N\Nc1nc2ccccc2c(=O)[nH]1)=N/Nc1nc2ccccc2c(=O)[nH]1 (stereo not given)	> 100 µM	> 100 µM	> 100 µM	> 100 µM	> 100 µM	–	> 100 µM	> 100 µM	> 100 µM	> 100 µM
CCOC(=O)NC(=S)c1ccc(O)c2ccccc12	> 100 µM	> 100 µM	> 100 µM	> 100 µM	> 100 µM	49.1 µM	> 100 µM	> 100 µM	> 100 µM	–
COc1ccc(/C=C2/CCS(=O)(=O)c3ccc(C)cc3C2=O)cc1OC	15.1 µM	19.6 µM	20.3 µM	> 100 µM	73.2 µM	22.4 µM	> 100 µM	23 µM	46.5 µM	73.9 µM
CCN(CC)COC(=S)S	> 100 µM	> 78.1 µM	> 100 µM	> 100 µM	> 100 µM	> 100 µM	> 100 µM	> 100 µM	> 100 µM	> 100 µM
C[C@]12CC/C(=N\OCCN3CCCCC3)C=C1CCC1C2CC[C@@]2(C)C1CC[C@]2(C)O (stereo not given in full)	44.8 µM	22.1 µM	27.6 µM	43.7 µM	32.1 µM	35.5 µM	17.9 µM	26.6 µM	20.5 µM	33.5 µM
COc1ccc2c(-c3ccc(O)cc3)c(Oc3ccc(Cl)cc3)c(=O)oc2c1	24.7 µM	25.7 µM	17.6 µM	44.2 µM	16.8 µM	9.99 µM	> 57.8 µM	22.6 µM	> 46 µM	19.2 µM
NC(=O)C(Nc1ccc(Cl)cc1)c1cc2cc(Br)ccc2nc1Cl (stereo not given)	> 50 µM	> 50 µM	> 50 µM	> 50 µM	> 50 µM	> 50 µM	> 50 µM	> 50 µM	> 50 µM	> 50 µM
CCN(CC)C(=S)SS(=O)(=O)c1ccccc1[N+](=O)[O-]	> 66.5 µM	> 100 µM	> 100 µM	> 65.8 µM	> 88.7 µM	> 100 µM	50.4 µM	> 50 µM	97.5 µM	56.6 µM
CC(NC(NC(C)C12CC3CC(CC(C3)C1)C2)=C(C(Cl)=C(Cl)Cl)[N+](=O)[O-])C12CC3CC(CC(C3)C1)C2 (stereo not given)	> 100 µM	> 75 µM	> 100 µM	> 100 µM	53.9 µM	30.1 µM	> 40 µM	> 100 µM	> 100 µM	23.2 µM
N#CCCN(CCC#N)c1ccc(C(N=Nc2ccc(Cl)cc2)=Nc2ccc(F)cc2)cc1	> 100 µM	> 100 µM	> 100 µM	> 100 µM	> 100 µM	> 100 µM	> 100 µM	> 100 µM	> 100 µM	> 100 µM
O=C1C(Cl)C(c2cc3cc(Br)ccc3nc2Cl)N1c1c(Cl)cccc1Cl (stereo not given)	> 25 µM	> 25 µM	> 25 µM	> 25 µM	> 25 µM	> 25 µM	18 µM	> 25 µM	> 25 µM	> 25 µM
OC(c1ccccc1)C(F)(F)c1nc2ccccc2o1 (stereo not given)	> 100 µM	> 100 µM	> 100 µM	> 100 µM	> 100 µM	> 100 µM	75.3 µM	> 100 µM	> 100 µM	–
O=C(Nc1nc(C23CC4CC(CC(C4)C2)C3)cs1)c1cc2c(ccc3ccccc32)oc1=O	> 100 µM	> 100 µM	> 100 µM	> 100 µM	> 100 µM	> 100 µM	> 100 µM	> 100 µM	> 100 µM	> 100 µM
CN(C)c1ccc(C2ON=C(c3ccccc3)N2C23CC4CC(CC(C4)C2)C3)cc1 (stereo not given)	> 10 µM	> 10 µM	> 10 µM	> 10 µM	> 10 µM	> 10 µM	> 10 µM	> 10 µM	> 10 µM	> 10 µM
CCCOC1OC(CS(=O)(=O)O)C(O)C(O)C1O (stereo not given)	> 100 µM	> 100 µM	> 100 µM	> 100 µM	> 100 µM	> 100 µM	> 100 µM	> 100 µM	> 100 µM	> 100 µM
Cc1ccc(-c2cc(-c3c(C)nn(C)c(=O)c3N)[nH]n2)cc1	> 100 µM	> 100 µM	> 100 µM	–	> 100 µM	> 100 µM	> 100 µM	> 100 µM	> 100 µM	> 100 µM
